Laboratory results: patent US20150282488A1, “COMPOSITIONS AND METHODS FOR CONTROLLING PLANT-PARASITE NEMATODE” (BAYER CROPSCIENCE LP, priority 2012, published 2015)

Test system: R. reniformis
Assay: Greenhouse trial with treated cotton seeds in autoclaved soil
Format: in vivo, Rotlyenchulus reniformis
Details: seed treatment 500 g ai/100 kg
Description: Anti-nematodal activity is understood as meaning any activity useful in controlling or killing nematodes, such as reducing nematode egg hatching or paralyzing juveniles of nematodes. Testing for anti-nematodal activity is done both in-vitro and in-vivo through laboratory and greenhouse procedures. In-vitro testing can involve testing eggs and/or juvenile nematodes in selective media in small 96-well plates and measurements done by microscopic evaluations. Proper control treatments would be combined to monitor and compare activity. Under greenhouse studoes soil was autoclaved using two 90 minute cycles at 130° C. at […] pressure with a 24 hour cool down between cycles to remove any natural competition for the microflora. The vermiform stages were extracted from the soil by the modified gravity screening and sucrose centrifugation-flotation. Eggs stages were extracted from cotton roots by shaking the root system in a 1% NaOCl solution for four minutes at 120 rpm. The nematode suspension was collected and rinsed with water through a 25 μm sieve. Females in roots were stained with acid fuschin to facilitate enumeration of the females invading the root. Variables measured included plant height, shoot and root weights, females and eggs per gram of root, and the number of vermiform life stages in soil. […]
Rotlyenchulus reniformis vermiform life stages were extracted from the soil by modified gravity screening and sucrose centrifugation-flotation. […] Vermiform life stages and eggs were counted under an inverted TS 100 Nikon microscope at 40× magnification. Females embedded in the root systems were quantified at 5× magnification utilizing the Nikon SMZ800 […] microscope. Variables measured were plant height, shoot and root weight, females and eggs per gram of root, and the number of vermiform life stages in 500 cm^3 of soil. […] Data were analyzed in SAS 9.1 (SAS Institute Inc.). The distributional assumption was evaluated with the student panel graphs of the GLIMMIX procedure. […]

O=[N+]([O-])NC1=NCCN1Cc1ccc(Cl)nc1 [imidacloprid]
effect on R. reniformis life stages: did not have any effect
effect on cotton plant growth: did not have any effect
nematicidal activity: did not show any nematicidal activity
